# Laboratory results as given in patent EP1763509B1, “ALPHA-HELICAL MIMETICS” (THE WALTER AND ELIZA HALL INSTITUTE OF MEDICAL RESEARCH, priority 2004, dated 2006).
# Assays:
# Bcl-xLΔ25 = biological target: T1, Bcl-xLΔ25 (Homo sapiens, UniProt Q07817); experiment: Alphascreen GST competition binding assay, benzoylurea compounds vs Biotinylated Bim BH3-26 peptide on GST tagged Bcl-xL ΔC25 protein; conditions: GST tagged Bcl-xL ΔC25 protein 0.6 nM, Biotinylated Bim BH3-26 peptide 5.0 nM, 4 hours at room temperature; n.b. = not binding in the assay conditions
# T1 construct: GST tagged Bcl-xL ΔC25 protein
# T1 sequence (Q07817 1-208 limits assumed, stated change not applied): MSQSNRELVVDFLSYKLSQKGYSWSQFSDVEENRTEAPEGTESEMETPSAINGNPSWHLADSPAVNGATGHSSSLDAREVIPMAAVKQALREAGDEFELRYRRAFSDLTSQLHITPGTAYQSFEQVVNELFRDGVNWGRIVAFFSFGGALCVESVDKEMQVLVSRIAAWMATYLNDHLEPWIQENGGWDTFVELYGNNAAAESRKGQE
# Bcl-wΔ29 = biological target: T2, Bcl-wΔ29 (Homo sapiens, UniProt Q92843); experiment: Alphascreen GST competition binding assay, benzoylurea compounds vs Biotinylated Bim BH3-26 peptide on GST tagged Bclw ΔC29 protein; conditions: GST tagged Bclw ΔC29 protein 0.05 nM, Biotinylated Bim BH3-26 peptide 3.0 nM, 4 hours at room temperature; values marked a tested in a separate experiment; n.b. = not binding in the assay conditions
# T2 construct: GST tagged Bclw ΔC29 protein
# T2 sequence (Q92843 1-164 limits assumed): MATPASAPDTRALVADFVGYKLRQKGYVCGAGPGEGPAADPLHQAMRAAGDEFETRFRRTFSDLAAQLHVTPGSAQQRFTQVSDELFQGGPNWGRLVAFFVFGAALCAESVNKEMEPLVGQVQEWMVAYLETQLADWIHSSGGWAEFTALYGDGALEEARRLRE
IC50 (Bcl-xLΔ25) [µM],IC50 (Bcl-wΔ29) [µM],Compound,further results
148,149,CCC(C)N(C(=O)N[C@@H](CSCc1ccccc1)C(=O)O)C(=O)c1cccc(-c2ccccc2)c1 (mixture of isomers) [(4)],
70.1,38,CCCN(C(=O)N[C@@H](CSCc1ccccc1)C(=O)O)C(=O)c1cccc(-c2ccccc2)c1 [(1)],
,46,O=C(O)[C@H](CSCc1ccccc1)NC(=O)N(Cc1cccnc1)C(=O)c1cccc(-c2ccccc2)c1 [(12)],
,31,CCCN(C(=O)N[C@@H](CSCc1ccccc1)C(=O)O)C(=O)c1cccc(-c2cccc3ccccc23)c1 [(13)],
,36,CCCN(C(=O)N[C@@H](CSCc1ccccc1)C(=O)O)C(=O)c1cccc(-c2ccc3ccccc3c2)c1 [(14)],
,41,CCCN(C(=O)N[C@@H](Cc1ccc(-c2ccccc2)cc1)C(=O)O)C(=O)c1cccc(-c2ccccc2)c1 [(15)],
,130,CCCN(C(=O)N[C@@H](CCc1ccccc1)C(=O)O)C(=O)c1cccc(-c2ccccc2)c1 [(16)],
,55,CCCN(C(=O)N[C@@H](Cc1ccc2ccccc2c1)C(=O)O)C(=O)c1cccc(-c2ccccc2)c1 [(17)],
,60,CCCN(C(=O)N[C@@H](Cc1cccc2ccccc12)C(=O)O)C(=O)c1cccc(-c2ccccc2)c1 [(18)],
,132,CCCN(C(=O)N[C@@H](CCCc1ccccc1)C(=O)O)C(=O)c1cccc(-c2ccccc2)c1 [(19)],
,84,CCCN(C(=O)N[C@H](CSCc1ccccc1)C(=O)O)C(=O)c1cccc(-c2ccccc2)c1 [(21)],
,80,CCCN(C(=O)N[C@@H](CSc1ccccc1)C(=O)O)C(=O)c1cccc(-c2ccccc2)c1 [(22)],
,76,CCCN(C(=O)N[C@@H](CSCc1ccccc1)C(=O)O)C(=O)c1ccc(-c2ccccc2)cc1 [(23)],
,31.2,O=C(O)[C@H](CSCc1ccccc1)NC(=O)N(Cc1cccc2ccccc12)C(=O)c1cccc(-c2ccccc2)c1 [(24)],
,261,CCCN(C(=O)N[C@@H](CSCCc1ccncc1)C(=O)O)C(=O)c1cccc(-c2ccccc2)c1 [(25)],
,194,CCCN(C(=O)N[C@@H](Cc1ccccc1)C(=O)O)C(=O)c1cccc(-c2ccccc2)c1 [(27)],
,88,CCCN(C(=O)N[C@@H](Cc1c[nH]c2ccccc12)C(=O)O)C(=O)c1cccc(-c2ccccc2)c1 [(29)],
,147,CCCN(C(=O)N[C@@H](COCc1ccccc1)C(=O)O)C(=O)c1cccc(-c2ccccc2)c1 [(30)],
,165,CCCN(C(=O)N[C@@H](C[S+]([O-])Cc1ccccc1)C(=O)O)C(=O)c1cccc(-c2ccccc2)c1 (stereo partly shown) [(31)],
,72,CCCN(C(=O)N[C@@H](CSCc1ccccc1)C(=O)O)C(=O)c1cccc(Cc2ccccc2)c1 [(33)],

IC50 (Bcl-xLΔ25) [µM],IC50 (Bcl-wΔ29) [µM],Compound,further results
,72,CCCN(C(=O)N[C@@H](CSCc1ccccc1)C(=O)O)C(=O)c1ccc(Cc2ccccc2)cc1 [(34)],
,66,CCCN(C(=O)N[C@@H](CSCc1ccccc1)C(=O)O)C(=O)c1cccc(-c2ccc(F)cc2)c1 [(35)],
,47,O=C(O)[C@H](CSCc1ccccc1)NC(=O)N(Cc1cccc2ccccc12)C(=O)c1cccc(-c2ccc(F)cc2)c1 [(36)],
,60,O=C(O)[C@H](CSCc1ccccc1)NC(=O)N(CCC1CC1)C(=O)c1cccc(-c2ccccc2)c1 [(37)],
,50,CC(C)CCN(C(=O)N[C@@H](CSCc1ccccc1)C(=O)O)C(=O)c1cccc(-c2ccccc2)c1 [(39)],
,63,CSCCN(C(=O)N[C@@H](CSCc1ccccc1)C(=O)O)C(=O)c1cccc(-c2ccccc2)c1 [(40)],
,57,O=C(O)[C@H](CSCc1ccccc1)NC(=O)N(CCC1CC1)C(=O)c1ccc(-c2ccccc2)cc1 [(43)],
,69,CSCCN(C(=O)N[C@@H](CSCc1ccccc1)C(=O)O)C(=O)c1ccc(-c2ccccc2)cc1 [(45)],
,38,CCCN(C(=O)N[C@@H](CSCc1ccccc1)C(=O)O)C(=O)c1cccc(-c2ccccc2Cl)c1 [(46)],
,62,CCCN(C(=O)N[C@@H](CSCc1ccccc1)C(=O)O)C(=O)c1cccc(-c2ccc(C)cc2)c1 [(47)],
,68,CCCN(C(=O)N[C@@H](CSCc1ccccc1)C(=O)O)C(=O)c1ccc(-c2ccccc2Cl)cc1 [(48)],
,96,CCCN(C(=O)N[C@@H](CSCc1ccccc1)C(=O)O)C(=O)c1cccc(-c2ccc(OC)cc2)c1 [(52)],
,48,CCCN(C(=O)N[C@@H](CSCc1ccccc1)C(=O)O)C(=O)c1cccc(-c2ccc(Cl)c(Cl)c2)c1 [(58)],
,68,CCCN(C(=O)N[C@@H](CSCc1ccccc1)C(=O)O)C(=O)c1cccc(-c2ccc(Cl)cc2)c1 [(59)],
,60,CCCN(C(=O)N[C@@H](CSCc1ccccc1)C(=O)O)C(=O)c1ccc(-c2ccc(Cl)c(Cl)c2)cc1 [(65)],
,58,CCCN(C(=O)N[C@@H](CSCc1ccccc1)C(=O)O)C(=O)c1cccc(C#Cc2ccccc2)c1 [(66)],
,92,CCCN(C(=O)N[C@@H](CSCc1ccccc1)C(=O)O)C(=O)c1ccc(C#Cc2ccccc2)cc1 [(67)],
,153,CCN(C(=O)N[C@@H](CSCc1ccccc1)C(=O)O)C(=O)c1cccc(-c2ccccc2)c1 [(70)],
,144,CCCN(C(=O)N[C@@H](CSCc1ccccc1)C(=O)O)C(=O)c1cc(CC(=O)O)cc(-c2ccccc2)c1 [(81)],

# Second part, the molecule before the results:
Compound,IC50 (Bcl-xLΔ25) [µM],IC50 (Bcl-wΔ29) [µM],further results
CCCN(C(=O)N[C@@H](CSCc1ccccc1)C(=O)O)C(=O)c1ccc(-c2ccc(F)cc2)cc1 [(11)],,104,
CCCN(C(=O)N[C@@H](Cc1ccc(O)cc1)C(=O)O)C(=O)c1cccc(-c2ccccc2)c1 [(28)],,300,
Cc1cccc(C)c1C(=O)N(C(=O)N[C@@H](CSCc1ccccc1)C(=O)O)C(C)C [(38)],,297,
CCCN(C(=O)N[C@@H](CSCc1ccccc1)C(=O)O)C(=O)c1ccc(-c2ccc(C)cc2)cc1 [(62)],,48,
CCCN(C(=O)N[C@@H](CSCc1ccccc1)C(=O)O)C(=O)c1ccc(-c2ccc(OC)cc2)cc1 [(63)],,136,
CCCN(C(=O)N[C@@H](CSCc1ccccc1)C(=O)O)C(=O)c1ccc(-c2ccc(Cl)cc2)cc1 [(64)],,74,
CCCN(C(=O)NCC(=O)O)C(=O)c1cccc(-c2ccccc2)c1 [(71)],,,Bcl-wΔ29 IC50 (µM) (Bcl-wΔ29): n.b.^b
O=C([C@H](CSCc1ccccc1)NC(=O)N(Cc1cccc2ccccc12)C(=O)c1cccc(-c2ccc(F)cc2)c1)N1CCOCC1 [(72)],,,Bcl-wΔ29 IC50 (µM) (Bcl-wΔ29): n.b.^b
CCCN(C(=O)N[C@H](CC(=O)O)Cc1c[nH]c2ccccc12)C(=O)c1cccc(C#Cc2ccccc2)c1 [(116)],19,,
CCCN(C(=O)N[C@@H](Cc1csc2ccccc12)C(=O)O)C(=O)c1cccc(C#Cc2ccccc2)c1 [(117)],35,,
CCCN(C(=O)N[C@H](CC(=O)O)Cc1ccc2ccccc2c1)C(=O)c1cccc(C#Cc2ccccc2)c1 [(118)],34,,
CCCN(C(=O)N[C@H](CC(=O)O)Cc1cccc2ccccc12)C(=O)c1cccc(C#Cc2ccccc2)c1 [(119)],67,,
CCCN(C(=O)N[C@@H](CCc1ccccc1)CC(=O)O)C(=O)c1cccc(C#Cc2ccccc2)c1 [(120)],44,,
CCCN(C(=O)N[C@@H](CCSC)CC(=O)O)C(=O)c1cccc(C#Cc2ccccc2)c1 [(121)],141,,
CCCCSC[C@H](NC(=O)N(CCC)C(=O)c1cccc(C#Cc2ccccc2)c1)C(=O)O [(122)],26,,
CCCCCSC[C@H](NC(=O)N(CCC)C(=O)c1cccc(C#Cc2ccccc2)c1)C(=O)O [(123)],30,,

Compound,IC50 (Bcl-xLΔ25) [µM],IC50 (Bcl-wΔ29) [µM],further results
CCCN(C(=O)N[C@@H](CSCCC(C)C)C(=O)O)C(=O)c1cccc(C#Cc2ccccc2)c1 [(124)],33,,
CCCN(C(=O)N[C@@H](CSCC(CC)CC)C(=O)O)C(=O)c1cccc(C#Cc2ccccc2)c1 [(126)],90,,
CCCN(C(=O)N[C@@H](CSCC1CCCCC1)C(=O)O)C(=O)c1cccc(C#Cc2ccccc2)c1 [(127)],40,,
CCCN(C(=O)N[C@@H](CSCC1CC1)C(=O)O)C(=O)c1cccc(C#Cc2ccccc2)c1 [(128)],53,,
CCCN(C(=O)N[C@@H](CSCC1CCC1)C(=O)O)C(=O)c1cccc(C#Cc2ccccc2)c1 [(129)],37,,
CCCCN(C(=O)N[C@@H](CSCC(C)C)C(=O)O)C(=O)c1cccc(C#Cc2ccccc2)c1 [(130)],39,,
CC(C)CSC[C@H](NC(=O)N(CC(C)C)C(=O)c1cccc(C#Cc2ccccc2)c1)C(=O)O [(131)],20,,
CC(C)CCN(C(=O)N[C@@H](CSCC(C)C)C(=O)O)C(=O)c1cccc(C#Cc2ccccc2)c1 [(132)],24,,
CSCCN(C(=O)N[C@@H](CSCC(C)C)C(=O)O)C(=O)c1cccc(C#Cc2ccccc2)c1 [(133)],27,,
CCCN(C(=O)N[C@@H](CSCC(C)C)C(=O)O)C(=O)c1cccc(C#Cc2ccc(C(C)(C)C)cc2)c1 [(149)],107,,
CCCN(C(=O)N[C@@H](CSCC(C)C)C(=O)O)C(=O)c1cccc(C#Cc2ccncc2)c1 [(150)],,,Bcl-xLΔ25 IC50 (µM) (Bcl-xLΔ25): n.b.^b
CCCN(C(=O)N[C@@H](CSCC(C)C)C(=O)O)C(=O)c1cccc(C#Cc2cccnc2)c1 [(151)],212,,
CCCN(C(=O)N[C@@H](CSCC(C)C)C(=O)NS(=O)(=O)c1ccc(Br)cc1)C(=O)c1cccc(C#Cc2ccccc2)c1 [(152)],48,,
CCCN(C(=O)N[C@@H](CSCC(C)C)C(=O)NS(=O)(=O)c1cccc(Br)c1)C(=O)c1cccc(C#Cc2ccccc2)c1 [(153)],40,,
CCCN(C(=O)N[C@@H](CSCC(C)C)C(=O)NS(=O)(=O)c1ccc(-c2ccccc2)cc1)C(=O)c1cccc(C#Cc2ccccc2)c1 [(154)],42,,
CCCN(C(=O)N[C@@H](CSCC(C)C)C(=O)NS(=O)(=O)c1ccc(NCCSc2ccccc2)c([N+](=O)[O-])c1)C(=O)c1cccc(C#Cc2ccccc2)c1 [(156)],10,,
